SMILES strings stand for the structures. Where “and” joins values, the source holds several entries; their conditions need not be identical. Equal values may be shown once.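 Grown in 96-well plates, cells were treated for 48 hours with each compound at five concentrations. Insufficient inhibition: endpoint recorded as highest concentration tested. GI50 is the concentration that inhibits growth by half.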 Calls of active or inactive are those of the source. Cut-off read from the data, not from the text of the source: active = GI50 up to about 1.1 µM and inactive = higher.

Test systems include CCRF-CEM; COLO 205; Malme-3M; 786-0; HL-60; HT-29; EKVX; CAKI-1; RPMI-8226; HCT-15; TK-10; MCF7; NCI-H460; DU-145; M14; OVCAR-3; SNB-19; IGROV-1; OVCAR-4; NCI-H226.
What all share (experiment): growth of human tumour cells (NCI), 48 h

For the compound `Cc1cc(C)nc(NS(=O)(=O)c2ccc(Nc3c4ccccc4nc4c(C(=O)NC(CO)(CO)CO)cccc34)cc2)n1`, the GI50 with CCRF-CEM is 16.1 µM (inactive); in the assay with COLO 205, 20.1 µM (inactive); in the assay with Malme-3M it was > 10 µM (inactive); in the assay on 786-0 it was 29 µM (inactive); in the assay on HL-60 it was 31.6 µM (inactive); with HT-29, 28.1 µM (inactive). The GI50 was 69 µM (inactive) in the assay with EKVX; 89.3 µM (inactive) in the assay on CAKI-1; 22.8 µM (inactive) with RPMI-8226; 52 µM in the assay on HCT-15; 31.3 µM (inactive) with TK-10; 25.8 µM (inactive) in the assay with MCF7. For the same compound, the GI50 with NCI-H460 is 15.8 µM (inactive); in the assay on DU-145 it was 55 µM (inactive); with M14 it was 37.2 µM (inactive); in the assay on OVCAR-3 it was 29.3 µM (inactive); in the assay with SNB-19 it was 25.4 µM (inactive); in the assay on IGROV-1, 40.1 µM (inactive). Moreover, the GI50 with OVCAR-4 is 45.9 µM (inactive).

On to `COC(=O)c1ccc(Oc2nc3ccccc3nc2-c2cccs2)cc1`, for which the GI50 was > 100 µM (inactive) with CCRF-CEM; > 100 µM (inactive) in the assay on COLO 205; > 100 µM (inactive) in the assay with Malme-3M; 34.4 µM (inactive) in the assay on 786-0; > 100 µM (inactive) in the assay on HL-60; > 100 µM (inactive) in the assay with HT-29. The GI50 in the assay on EKVX is > 100 µM (inactive); in the assay on CAKI-1, 43.4 µM (inactive); in the assay with HCT-15, 75.5 µM; in the assay with TK-10, 26.7 µM (inactive); in the assay with MCF7 it was 3.16 µM (inactive); with NCI-H460, 33.7 µM (inactive). Also, the GI50 with DU-145 was > 100 µM (inactive); with M14, 89.5 µM (inactive); in the assay with OVCAR-3, > 100 µM (inactive); with SNB-19, 27.5 µM (inactive); in the assay on IGROV-1, 39.3 µM (inactive); in the assay with OVCAR-4, > 100 µM (inactive).

In the case of `CCC(C)C1=C(O)[N+]2([O-])Oc3ccc(-c4c(O)c(O)c(-c5ccc(OC(C)=O)cc5)c(OC(C)=O)c4OC(C)=O)cc3OC2(C(C)CC)C(=O)N1O` (stereo not drawn), the GI50 in the assay with CCRF-CEM was 19.3 µM (inactive) and 19.2 µM (inactive); in the assay with COLO 205 it was > 50 µM (inactive); in the assay on Malme-3M it was 34.6 µM (inactive) and 45.2 µM (inactive); in the assay on 786-0, > 50 µM (inactive); with HL-60, 24 µM (inactive) and 27.4 µM (inactive); in the assay with HT-29, > 50 µM (inactive). Also, the GI50 with EKVX was > 50 µM (inactive); with CAKI-1, > 50 µM (inactive); with RPMI-8226, > 50 µM (inactive) and 33.8 µM (inactive); in the assay with HCT-15, above 50 µM; in the assay with TK-10 it was > 50 µM (inactive); with MCF7, > 50 µM (inactive). Further, the GI50 in the assay with NCI-H460 was > 50 µM (inactive); in the assay with DU-145, > 50 µM (inactive); in the assay on M14, > 50 µM (inactive); in the assay on OVCAR-3 it was > 50 µM (inactive); in the assay on SNB-19, > 50 µM (inactive); in the assay on IGROV-1 it was 25.6 µM (inactive) and 17.1 µM (inactive). Moreover, the GI50 in the assay with OVCAR-4 is 12.9 µM (inactive) and 14.9 µM (inactive).

Regarding `O=C1C(Cl)C2(CC(/C=C/c3ccccc3O)=NN2c2cccc(S(=O)(=O)O)c2)N1c1nc2ccccc2s1` (stereo not drawn), the GI50 was 7.24 µM (inactive) in the assay with CCRF-CEM; 18.9 µM (inactive) in the assay on COLO 205; 13.8 µM (inactive) in the assay with Malme-3M; 15.6 µM (inactive) in the assay on 786-0; 3.54 µM (inactive) in the assay on HL-60; 18.6 µM (inactive) in the assay on HT-29. Moreover, the GI50 was 18.6 µM (inactive) in the assay with EKVX; 18.9 µM (inactive) in the assay on NCI-H226; 12.1 µM (inactive) in the assay with RPMI-8226; 18.2 µM in the assay on HCT-15; 12.3 µM (inactive) in the assay on TK-10; 15.4 µM (inactive) with MCF7. Besides, the GI50 in the assay on NCI-H460 is 15.1 µM (inactive); with M14, 18.3 µM (inactive); in the assay on SNB-19, 30.8 µM (inactive); with IGROV-1, 14.9 µM (inactive); with OVCAR-4, 13.4 µM (inactive).

As for `COC(=O)CC(C#N)(OP1(=O)OC(c2ccccc2)C(C)N1C)c1ccccc1` (stereo not drawn), the GI50 in the assay with CCRF-CEM was 11.5 µM (inactive); with COLO 205, 34.5 µM (inactive); with Malme-3M, 41.8 µM (inactive); in the assay on 786-0 it was 24 µM (inactive); with HL-60, 23.8 µM (inactive); in the assay on HT-29, 23.8 µM (inactive). Further, the GI50 was 21.7 µM (inactive) with EKVX; 25.4 µM (inactive) in the assay with CAKI-1; 25.1 µM (inactive) in the assay on RPMI-8226; 28.6 µM with HCT-15; 29 µM (inactive) with TK-10; 28.2 µM (inactive) in the assay with MCF7. The GI50 in the assay with NCI-H460 was 20.4 µM (inactive); in the assay on DU-145 it was 32.4 µM (inactive); with M14 it was 31.3 µM (inactive); with OVCAR-3, 18.8 µM (inactive); in the assay on SNB-19, 39.3 µM (inactive); in the assay with IGROV-1, 34.4 µM (inactive).

On to `Cc1cccc(C(C)C)c1NC(=O)C(=O)CC(=O)c1sc(Nc2ccccc2Cl)nc1C`, for which the GI50 in the assay on CCRF-CEM was 30.3 µM (inactive); in the assay with COLO 205, 29.9 µM (inactive); in the assay on Malme-3M it was > 100 µM (inactive); in the assay with 786-0, 32.8 µM (inactive); in the assay with HL-60, 16.1 µM (inactive); with EKVX it was 52.2 µM (inactive). The GI50 was 85.3 µM (inactive) in the assay with CAKI-1; 13.3 µM (inactive) in the assay on RPMI-8226; 30.9 µM in the assay with HCT-15; 90.2 µM (inactive) in the assay on TK-10; 10.3 µM (inactive) in the assay with MCF7; 22.1 µM (inactive) with NCI-H460. In addition, the GI50 with DU-145 is 71.4 µM (inactive); in the assay with M14 it was 19.5 µM (inactive); with OVCAR-3, 32 µM (inactive); in the assay on SNB-19, 56.4 µM (inactive); in the assay on IGROV-1 it was 46.3 µM (inactive); in the assay with OVCAR-4, 83.4 µM (inactive).

Take `COC(=O)C(=O)C(C(=O)C(=O)Nc1ccccc1OC)c1nc2ccc([N+](=O)[O-])cc2nc1O` (stereo not drawn): the GI50 in the assay on CCRF-CEM is > 100 µM (inactive); in the assay with Malme-3M it was 83 µM (inactive); in the assay with 786-0, > 100 µM (inactive); in the assay on HL-60, > 100 µM (inactive); with HT-29 it was > 100 µM (inactive); in the assay on EKVX it was 45.5 µM (inactive). Moreover, the GI50 in the assay on NCI-H226 is > 100 µM (inactive); in the assay with CAKI-1, > 100 µM (inactive); in the assay on RPMI-8226 it was > 100 µM (inactive); in the assay on HCT-15, 41.4 µM; in the assay on TK-10, > 100 µM (inactive); with MCF7, > 100 µM (inactive). Besides, the GI50 in the assay on NCI-H460 is 58.2 µM (inactive); in the assay with M14 it was > 100 µM (inactive); in the assay with OVCAR-3, > 100 µM (inactive); in the assay with SNB-19, 23.2 µM (inactive); in the assay with IGROV-1 it was 54.8 µM (inactive); with OVCAR-4, 83.8 µM (inactive).

Turning to `Oc1cccc(-c2cc(=S)ss2)c1`, the GI50 is 18.4 µM (inactive) in the assay on COLO 205; 17.6 µM (inactive) in the assay with Malme-3M; 19.7 µM (inactive) in the assay on 786-0; 15 µM (inactive) with HL-60; 24.7 µM (inactive) in the assay on HT-29; 16.1 µM (inactive) in the assay on EKVX. For the same compound, the GI50 is 18 µM (inactive) with NCI-H226; 18.2 µM (inactive) in the assay on CAKI-1; 2.24 µM (inactive) in the assay on RPMI-8226; 15.1 µM in the assay on HCT-15; 18.5 µM (inactive) with TK-10; 12.8 µM (inactive) in the assay with MCF7. In addition, the GI50 is 17.1 µM (inactive) in the assay on NCI-H460; 20.6 µM (inactive) with M14; 19.7 µM (inactive) in the assay with SNB-19; 14.4 µM (inactive) in the assay with IGROV-1; 18.6 µM (inactive) with OVCAR-4.

For the compound `COC(=O)NCCc1n[nH]c2c1C(=O)C=C(Nc1ccccc1OC)C2=O`, the GI50 in the assay with CCRF-CEM was 30.1 µM (inactive); with COLO 205, 24.3 µM (inactive); with Malme-3M it was 14.2 µM (inactive); in the assay on 786-0, 38 µM (inactive); in the assay on HL-60, 21.8 µM (inactive); in the assay on HT-29 it was 28.1 µM (inactive). For the same compound, the GI50 in the assay on EKVX is 32.8 µM (inactive); with CAKI-1, 33.9 µM (inactive); with RPMI-8226, 20.5 µM (inactive); in the assay with HCT-15 it was 28.4 µM; in the assay on TK-10, 53.7 µM (inactive); in the assay on MCF7 it was 16 µM (inactive). For the same compound, the GI50 is 28.2 µM (inactive) in the assay with NCI-H460; 42.4 µM (inactive) with DU-145; 16.2 µM (inactive) in the assay on M14; 7.64 µM (inactive) with OVCAR-3; > 100 µM (inactive) with SNB-19; 26.5 µM (inactive) in the assay on IGROV-1. Moreover, in the assay with OVCAR-4, the GI50 is 16.8 µM (inactive).

For `CN(C)c1ccc(/C=C2\CCCCCC2=O)cc1`, the GI50 in the assay on CCRF-CEM is > 100 µM (inactive); with COLO 205, > 100 µM (inactive); in the assay with Malme-3M, > 100 µM (inactive); in the assay on 786-0, 87.1 µM (inactive); with HL-60, > 100 µM (inactive); in the assay on HT-29, > 100 µM (inactive). For the same compound, the GI50 is > 100 µM (inactive) in the assay on EKVX; > 100 µM (inactive) in the assay with CAKI-1; 94.4 µM (inactive) in the assay with RPMI-8226; > 100 µM (inactive) with TK-10; > 100 µM (inactive) in the assay with MCF7; 31.6 µM (inactive) in the assay with NCI-H460. Moreover, the GI50 in the assay on DU-145 is > 100 µM (inactive); in the assay on M14, 79.1 µM (inactive); in the assay with OVCAR-3, 71.1 µM (inactive); with SNB-19 it was > 100 µM (inactive); with IGROV-1, > 100 µM (inactive).

With `Cc1ccc(S(=O)(=O)Nn2c(O)c(C#N)c(-c3ccc(Cl)cc3)c(C#N)c2=O)cc1`, the GI50 with CCRF-CEM, in the assay on COLO 205, in the assay on Malme-3M, with 786-0, with HL-60 and with HT-29 was > 100 µM (inactive) in each case. In addition, the GI50 with EKVX is > 100 µM (inactive); in the assay on NCI-H226, > 100 µM (inactive); in the assay on CAKI-1 it was > 100 µM (inactive); with RPMI-8226 it was > 100 µM (inactive); in the assay on HCT-15, above 100 µM; with TK-10, > 100 µM (inactive). The GI50 in the assay with MCF7, with NCI-H460, in the assay on M14, in the assay with SNB-19, in the assay on IGROV-1 and with OVCAR-4 was > 100 µM (inactive) throughout.

The record behind these values is ChEMBL document CHEMBL1201862, “PubChem BioAssay data set” (2004).
